# Measurements: patent US20250042889A1, “3CLPRO PROTEASE INHIBITOR” (SHANGHAI QILU PHARMACEUTICAL RESEARCH AND DEVELOPMENT …, priority 2021, published 2025)
# Like-named read-outs stand apart in the source and are kept apart here.
# Biological target: SARS-COV-2 3CLpro/Mpro protease (Severe acute respiratory syndrome coronavirus 2 (2019-nCoV) (SARS-CoV-2), UniProt P0DTD1)
# Assay: Inhibitory effect on SARS-COV-2 3CLpro/Mpro protease by fluorescence resonance energy transfer
# Type: biochemical
# Details: activity intervals A-D
# [1] = read-out: IC50 (nM), Inhibition on SARS-CoV-2 3CLpro/Mpro protease
# [2] = IC50 (nM), Inhibition on SARS-CoV-2 3CLpro/Mpro protease
SMILES,IC50 [1] [nM],IC50 [2] [nM]
"CNc1cncc(C(=O)N2CCC[C@@H](Nc3c(C(=O)N4CC=C(F)CC4)cc(Br)cc3[N+](=O)[O-])C2)c1 [Example 337, (R)-(5-Bromo-2-((1-(5-(methylamino)nicotinoyl)piperidin-3-yl)amino)-3-nitrophenyl)(4-fluoro-3,6-dihydropyridin-1 (2H)-yl)methanone]",10 to 50,–
CNc1cncc(C(=O)N2CCC[C@@H](Nc3c(C(=O)N4CCC5(CC4)CNCC(F)(F)O5)cc(Br)cc3[N+](=O)[O-])C2)c1 [Example 338],10 to 50,–
CNc1cncc(C(=O)N2CCC[C@@H](Nc3c(C(=O)N4CCC5(CC4)COC(C)(C)C5)cc(Br)cc3[N+](=O)[O-])C2)c1 [Example 339],10 to 50,–
CNc1cncc(C(=O)N2CCC[C@@H](Nc3c(C(=O)N4CCOC(C)(C)C4)cc(Br)cc3[N+](=O)[O-])C2)c1 [Example 340],10 to 50,–
CNc1cncc(C(=O)N2CCC[C@@H](Nc3c(C(=O)N4CCO[C@H](CCl)C4)cc(Br)cc3[N+](=O)[O-])C2)c1 [Example 341],10 to 50,–
CNc1cncc(C(=O)N2CCC[C@@H](Nc3c(C(=O)N4CCO[C@H](C5CC5)C4)cc(Br)cc3[N+](=O)[O-])C2)c1 [Example 342],10 to 50,–
CNc1ccc2c(C(=O)N3CCC[C@@H](Nc4c(C(=O)N5C[C@@H](C)O[C@@H](C)C5)cc(Br)cc4[N+](=O)[O-])C3)cc(=O)[nH]c2c1 [Example 343],10 to 50,–
C=C[C@@H]1CN(C(=O)c2cc(Br)cc([N+](=O)[O-])c2N[C@@H]2CCCN(C(=O)c3cncc(NC)c3)C2)CCO1 [Example 344],10 to 50,–
CNc1cncc(C(=O)N2CCC[C@@H](Nc3c(C(=O)N4CC(C)O[C@H](C(F)(F)F)C4)cc(Br)cc3[N+](=O)[O-])C2)c1 (some centres unmarked) [Example 345],10 to 50,–
C#C[C@@H]1CN(C(=O)c2cc(Br)cc([N+](=O)[O-])c2N[C@@H]2CCCN(C(=O)c3cncc(NC)c3)C2)CCO1 [Example 346],10 to 50,–
[2H]C([2H])([2H])Nc1cncc(C(=O)N2CCC[C@@H](Nc3c(C(=O)N4C[C@@H](C)O[C@@H](C)C4)cc(Br)cc3[N+](=O)[O-])C2)c1 [Example 347],10 to 50,–
C[C@@H]1CN(C(=O)c2cc(Br)cc([N+](=O)[O-])c2N[C@@H]2CCCN(C(=O)[C@@H]3CCCOC3)C2)C[C@H](C)O1 [Example 348],10 to 50,–
CNc1cncc(C(=O)N2CCC[C@@H](Nc3c(C(=O)N4C[C@@H](C)O[C@@H](C(F)(F)F)C4)cc(Br)cc3[N+](=O)[O-])C2)c1 [Example 349],10 to 50,–
CNc1cncc(C(=O)N2CCC[C@@H](Nc3c(C(=O)N4C[C@H](C)O[C@@H](C(F)(F)F)C4)cc(Br)cc3[N+](=O)[O-])C2)c1 [Example 350],50 to 100,–
CNc1cncc(C(=O)N2CCC[C@@H](Nc3c(C(=O)N4CCOC5(CC5)C4)cc(Br)cc3[N+](=O)[O-])C2)c1 [Example 351],10 to 50,–
CNc1cncc(C(=O)N2CCC[C@@H](Nc3c(C(=O)N4CCn5ccnc5C4)cc(Br)cc3[N+](=O)[O-])C2)c1 [Example 352],10 to 50,–
[2H]C1([2H])CN(C(=O)c2cc(Br)cc([N+](=O)[O-])c2N[C@@H]2CCCN(C(=O)c3cncc(NC)c3)C2)CC([2H])([2H])O1 [Example 353],10 to 50,–
[2H]C1([2H])CC[C@@H](Nc2c(C(=O)N3C[C@@H](C)O[C@@H](C)C3)cc(Br)cc2[N+](=O)[O-])C([2H])([2H])N1C(=O)c1cncc(NC)c1 [Example 354],10 to 50,–
CNc1cncc(C(=O)N2CCC[C@@H](Nc3c(C(=O)N4CCOC[C@H]4C)cc(Br)cc3[N+](=O)[O-])C2)c1 [Example 355],10 to 50,–
CNc1cncc(C(=O)N2CCC[C@@H](Nc3c(C(=O)N4CCOC[C@@H]4C)cc(Br)cc3[N+](=O)[O-])C2)c1 [Example 356],10 to 50,–
"CNc1cncc(C(=O)N2CCC[C@@H](Nc3c(C(=O)N4C5COCC4C5)cc(Br)cc3[N+](=O)[O-])C2)c1 [Example 357, ((3R)-3-((2-(3-oxa-6-azabicyclo[3.1.1]heptan-6-carbonyl)-4-bromo-6-nitrophenyl)amino)piperidin-1-yl)(5-(methylamino)pyridin-3-yl)methanone]",–,10 to 50
CNc1cncc(C(=O)N2CCC[C@@H](Nc3c(C(=O)N4C5CCC4COC5)cc(Br)cc3[N+](=O)[O-])C2)c1 [Example 358],–,10 to 50
CNc1cncc(C(=O)N2CCC[C@@H](Nc3c(C(=O)N4[C@H](C)COC[C@@H]4C)cc(Br)cc3[N+](=O)[O-])C2)c1 [Example 359],10 to 50,–
CNc1cncc(C(=O)N2C[C@H](Nc3c(C(=O)N4CC5CCC(C4)O5)cc(Br)cc3[N+](=O)[O-])[C@@H](OC)C2)c1 [Example 360],10 to 50,–

SMILES,IC50 [1] [nM],IC50 [2] [nM]
COCCN1CCN(C(=O)c2cc(Br)cc([N+](=O)[O-])c2N[C@@H]2CCCN(C(=O)[C@H]3CNCC(F)(F)C3)C2)CC1 [Example 361],10 to 50,–
CNc1cncc(C(=O)N2C[C@H](Nc3c(C(=O)N4C[C@@H](C)O[C@@H](C)C4)cc(Br)cc3[N+](=O)[O-])C[C@H]2C(=O)N2CCNC(=O)C2)c1 [Example 364],50 to 100,–
CNc1cncc(C(=O)N2C[C@H](Nc3c(C(=O)N4C[C@@H](C)O[C@@H](C)C4)cc(Br)cc3[N+](=O)[O-])C[C@H]2C(=O)N2CCc3nn(C)cc3C2)c1 [Example 365],50 to 100,–
CNC(=O)[C@@H]1C[C@@H](Nc2c(C(=O)N3C[C@@H](C)O[C@@H](C)C3)cc(Br)cc2[N+](=O)[O-])CN1C(=O)c1cncc(NC)c1 [Example 366],10 to 50,–
CNc1cncc(C(=O)N2C[C@H](Nc3c(C(=O)N4CCOC[C@H]4C)cc(Br)cc3[N+](=O)[O-])[C@@H](OC)C2)c1 [Example 367],10 to 50,–
"CNc1cncc(C(=O)N2CCC[C@@H](Nc3c(C(=O)N4CC(F)(F)OC(F)(F)C4)cc(Br)cc3[N+](=O)[O-])C2)c1 [Example 368, (R)-(5-bromo-2-((1-(5-(methylamino)nicotinoyl)piperidin-3-yl)amino)-3-nitrophenyl)(2,2,6,6-tetrafluoromorpholinyl)methanone]",10 to 50,–
"CNc1cncc(C(=O)N2C[C@H](Nc3c(C(=O)N4C[C@@H](C)O[C@@H](C)C4)cc(Br)cc3[N+](=O)[O-])C[C@H]2C(=O)Nc2cnoc2)c1 [Example 369, (2S,4R)-4-((4-bromo-2-((2R,6S)-2,6-dimethylmorpholin-4-carbonyl)-6-nitrophenyl)amino)-N-(isoxazol-4-yl)-1-(5-(methylamino)nicotinoyl) pyrrolidin-2-formamide]",50 to 100,–
CNc1cncc(C(=O)N2C[C@H](Nc3c(C(=O)N4C[C@@H](C)O[C@@H](C)C4)cc(Br)cc3[N+](=O)[O-])C[C@H]2C(=O)Nc2cccc(Br)c2)c1 [Example 370],50 to 100,–
CNc1cncc(C(=O)N2C[C@H](Nc3c(C(=O)N4C5CCCC4COC5)cc(Br)cc3[N+](=O)[O-])[C@@H](OC)C2)c1 [Example 371],–,10 to 50
CNc1cncc(C(=O)N2C[C@H](Nc3c(C(=O)N4CCC(F)(F)CC4)cc(Br)cc3[N+](=O)[O-])[C@@H](OC)C2)c1 [Example 372],10 to 50,–
C#C[C@@H]1C[C@@H](Nc2c(C(=O)N3C[C@@H](C)O[C@@H](C)C3)cc(Br)cc2[N+](=O)[O-])CN1C(=O)c1cncc(NC)c1 [Example 373],50 to 100,–
CNc1cncc(C(=O)N2C[C@H](Nc3c(C(=O)N4CCCC(F)(F)C4)cc(Br)cc3[N+](=O)[O-])[C@@H](OC)C2)c1 [Example 374],10 to 50,–
CNc1cncc(C(=O)N2C[C@H](Nc3c(C(=O)N4CCOC(F)(F)C4)cc(Br)cc3[N+](=O)[O-])[C@@H](OC)C2)c1 [Example 375],10 to 50,–
CNc1cncc(C(=O)N2C[C@H](Nc3c(C(=O)N4C[C@@H](C)O[C@@H](C)C4)cc(Br)cc3[N+](=O)[O-])C[C@H]2C(=O)N2CCOCC2)c1 [Example 376],50 to 100,–
CNc1cncc(C(=O)N2C[C@H](Nc3c(C(=O)N4C[C@@H](C)O[C@@H](C)C4)cc(Br)cc3[N+](=O)[O-])C[C@H]2C(=O)N(C)C)c1 [Example 377],50 to 100,–
CNc1cncc(C(=O)N2C[C@H](Nc3c(C(=O)N4C[C@@H](C)O[C@@H](C)C4)cc(Br)cc3[N+](=O)[O-])C[C@H]2C(=O)NC2CNC(=O)C2)c1 (some centres unmarked) [Example 378],10 to 50,–
"CNc1cncc(C(=O)N2C[C@H](Nc3c(C(=O)N4C[C@@H](C)O[C@@H](C)C4)cc(Br)cc3[N+](=O)[O-])C[C@H]2C(N)=O)c1 [Example 379, (2S,4R)-4-((4-bromo-2-((2R,6S)-2,6-dimethylmorpholin-4-carbonyl)-6-nitrophenyl)amino)-1-(5-(methylamino)nicotinoyl) pyrrolidin-2-formamide]",10 to 50,–
CNc1cncc(C(=O)N2C[C@H](Nc3c(C(=O)N4C[C@@H](C)O[C@@H](C)C4)cc(Br)cc3[N+](=O)[O-])CC2C(=O)NCC(F)(F)F)c1 (some centres unmarked) [Example 380],10 to 50,–
CNc1cncc(C(=O)N2C[C@H](Nc3c(C(=O)N4C[C@@H](C)O[C@@H](C)C4)cc(Br)cc3[N+](=O)[O-])C[C@H]2C(=O)N2CC(F)(F)C2)c1 [Example 382],50 to 100,–
"CNc1cncc(C(=O)N2C[C@H](Nc3c(C(=O)N4C[C@@H](C)O[C@@H](C)C4)cc(Br)cc3[N+](=O)[O-])C[C@H]2C(=O)Nc2nn(C)cc2Br)c1 [Example 383, (2S,4R)—N-(4-bromo-1-methyl-1H-pyrazol-3-yl)-4-((4-bromo-2-((2R,6S)-2,6-dimethylmorpholin-4-carbonyl)-6-nitrophenyl)amino)-1-(5-(methylamino)nicotinoyl) pyrrolidin-2-formamide]",10 to 50,–
CNc1cncc(C(=O)N2C[C@H](Nc3c(C(=O)N4C[C@@H](C)O[C@@H](C)C4)cc(Br)cc3[N+](=O)[O-])C[C@H]2C(=O)Nc2ccn(C)n2)c1 [Example 385],10 to 50,–
CNc1cncc(C(=O)N2C[C@H](Nc3c(C(=O)N4C[C@@H](C)O[C@@H](C)C4)cc(Br)cc3[N+](=O)[O-])C[C@H]2C(=O)N2CC(O)C2)c1 [Example 386],50 to 100,–
CNc1cncc(C(=O)N2C[C@H](Nc3c(C(=O)N4C[C@@H](C)O[C@@H](C)C4)cc(Br)cc3[N+](=O)[O-])C[C@H]2C(=O)Nc2ccccc2)c1 [Example 387],10 to 50,–
